The source of these data is patent US8536152B2, “Methods of using diacerein as an adjunctive therapy for diabetes” (TWi Biotechnology, Inc., priority 2010, dated 2013).

Data set [1] has as its system type 2 (or type II) diabetes rodent models. The conditions noted are these: type 2 diabetes rodent models; cited from earlier work.
The subject of data set [2] is patients with type 2 diabetes inadequately controlled by current oral antidiabetic therapy. In words: Same clinical study: fasting plasma glucose. The settings on record: at 24 weeks. The format is in vivo, human. The text has this:
(§1) Subjects: Male or female type 2 DM patients (BMI≦35 kg/m^2) on a stable oral hypoglycemic […] for at least 3 months prior to screening visit. The hemoglobin A1c (HbA1c) measurements taken at a screening visit were between 7% and 12%. Patients enrolled in the study were receiving one or more oral antihyperglycemic agents including sulfonylurea, biguanides, alpha-glucosidase inhibitors, thiazolidinediones (TZDs) and nonsulfonylurea insulin secretagogues.
Procedure: This was a randomized, double-blind, parallel comparison study comparing 50 mg diacerein versus placebo in patients with type 2 DM inadequately controlled by previous antidiabetic therapy. The starting dose of diacerein was 50 mg once daily every morning for 4 weeks and could be adjusted up to 50 mg twice daily (morning and evening) if patients had become accustomed to the medication. Patients were screened for eligibility four weeks (week-4) prior to entry at baseline (week 0). During this 4-week screening period, the participants continued their previous antidiabetic therapy, dietary habits and other lifestyle habits. […]
(§2) For the efficacy parameters, descriptive statistics were presented by visit. […] The area under the concentration-time curve (AUC) was used for evaluating the parameters measured by oral glucose tolerance test.

For data set [3] the test system is unchanged. The data set can be described thus: Same clinical study: adverse events. Format: in vivo, human. The procedure: (§3) Procedure: This was a randomized, double-blind, parallel comparison study comparing 50 mg diacerein versus placebo in patients with type 2 DM inadequately controlled by previous antidiabetic therapy. The starting dose of diacerein was 50 mg once daily every morning for 4 weeks and could be adjusted up to 50 mg twice daily (morning and evening) if patients had become accustomed to the medication. Patients were screened for eligibility four weeks (week-4) prior to entry at baseline (week 0). During this 4-week screening period, the participants continued their previous antidiabetic therapy, dietary habits and other lifestyle habits. In order to be eligible for randomization following the 4-week screening period, patients must not have experienced hypoglycemia and must have had two fasting plasma glucose (FPG) measurements of between 135 to 250 mg/dL. At the end of the screening period, patients who met eligibility requirements were randomly assigned to receive diacerein 50 mg or placebo twice a day for 24 weeks observation. During treatment/observation period, the previous antidiabetic therapy including the class and/or dosage was not changed. Patients were asked to attend the center on eight occasions (screening, baseline, week 4, 8, 12, 16, 20 and 24) during the trial. The total study duration including the screening period for each patient was 28 weeks. There was a two weeks follow-up period after completion of the treatment/observation. During this follow-up period, patients were followed for adverse events.
Adverse events were summarized according to the Medical Dictionary for Regulatory Activities (MedDRA) adverse event dictionary. The tabulations counted the number of patients reporting individual preferred term adverse events and the total number of patients reporting at least one adverse event per system organ class. If appropriate, the incidence of adverse events was compared for each of the two treatment groups using Fisher's Exact test.

Data set [4] has the same test system. The data set can be described thus: Same clinical study: homeostatic model assessment (HOMA) beta cell function. Format: in vivo, human.
Text: as §1
as §3, with “There was a two weeks follow-up period after completion of the treatment/observation. During this follow-up period, patients were followed for adverse events.” left out
as §2

For data set [5] the test system is unchanged. In words: Same clinical study: cardiovascular safety endpoints (body weight, blood pressure, pulse rate, lipid profiles). The format is in vivo, human. Set-up: Total Cholesterol, Change / Triglyceride, Change / HDL, Change / LDL, Change: unit not given here.
Text: as §1, §3
For the efficacy parameters, descriptive statistics were presented by visit. Statistical analysis was performed to assess the mean change from baseline. The area under the concentration-time curve (AUC) was used for evaluating the parameters measured by oral glucose tolerance test.

Data set [6] has the same test system. In words: Randomized, double-blind, placebo-controlled study of add-on diacerein: glycosylated hemoglobin (HbA1c). Format: in vivo, human.
Text: Primary Endpoints: To compare the efficacy of add-on diacerein with no add-on treatment (placebo) on glycosylated hemoglobin (HbA1c) after 24-week double-blind treatment in type 2 DM patients inadequately controlled by previous antidiabetic therapy.
as §1
as §3, with “During this follow-up period, patients were followed for adverse events.” left out
Statistical method(s) for efficacy/safety evaluations: The difference (diacerein minus placebo) of HbA1c reduction between the two treatment groups was analyzed by analysis of covariance (ANCOVA) with baseline value as covariate. The corresponding 95% confidence interval was calculated. Within-group changes were also analyzed, with paired t test used to evaluate differences from baseline in each treatment group.
For the efficacy parameters, descriptive statistics were presented by visit. […] The area under the concentration-time curve (AUC) was used for evaluating the parameters measured by oral glucose tolerance test. […]

[7] abbreviates: Week 24, N 28, in mg/dL (unit assumed).
Where [8] appears, read: Week 24, N 28, in mmHg (unit assumed).

In the case of `O=C(O)c1cc(O)c2c(c1)C(=O)c1cccc(O)c1C2=O` [Rhein, 9,10-dihydro-4,5-dihydroxy-9,10-dioxo-2-anthracenecarboxylic acid], in data set [1], the “blood glucose concentration control” value is on record as “control the blood glucose concentration”.

In the case of `CC(=O)Oc1cccc2c1C(=O)c1c(OC(C)=O)cc(C(=O)O)cc1C2=O` [diacerein, 4,5-bis(acetyloxy)-9,10-dioxo-2-anthracene carboxylic acid], in data set [2], the “fasting plasma glucose levels versus placebo group” value is listed as “consistently lower”. For the same molecule, in data set [3] (diacerein vs placebo), the “difference between the two groups in the incidence of patients complaining of adverse events” value is on record as “No statistically significant difference”. Moreover, in data set [3] (during the study period), the “patients reporting at least one adverse effect (AE), number” value came out at 20 patients and the “patients reporting at least one adverse effect (AE), percent” value is 54.1%. In addition, the symptomatic hypoglycemia result in data set [3] (even in patients with a marked improvement in HbA1c levels) is listed as “not observed”. Further, the “within-group change from baseline in HOMA-BETA” value in data set [4] (over 24 weeks) is “significant”. Moreover, the “HOMA beta cell function (HOMA-BETA) course over treatment” value in data set [4] (over the course of treatment) was “continual improvement”. The same molecule gave an HOMA-BETA in data set [4] (week 24) of 56.26. The “pulse rate, Mean ± SD” value in data set [5] (Week 24, N 28) is given as 77.18 ± 10.22. Besides, in data set [5] (setting [7]), the “HDL, Mean ± SD” value came out at 42.25 ± 10.40; the “LDL, Mean ± SD” value is 91.64 ± 27.28; the “Total Cholesterol, Mean ± SD” value stood at 164.61 ± 30.09; the “Triglyceride, Mean ± SD” value stood at 159.18 ± 97.07. In data set [5] (setting [8]), the “Systolic blood pressure, Mean ± SD” value worked out at 130.32 ± 16.85 and the “diastolic blood pressure, Mean ± SD” value was determined as 78.86 ± 8.20. Moreover, in data set [5] (Week 24 vs baseline), the “HDL, Change” value is listed as −0.96 ± 10.27; the “LDL, Change” value was −6.09 ± 19.75; the “Systolic blood pressure, Change” value is −0.25 ± 14.38; the “Total Cholesterol, Change” value is −8.46 ± 32.20. In data set [5] (Week 24 vs baseline), the “Triglyceride, Change” value was −7.57 ± 98.79; the “diastolic blood pressure, Change” value is −1.14 ± 8.78; the “pulse rate, Change” value was determined as 1.46 ± 9.00. Further, the “risks of heart attack and cardiovascular disorders” value in data set [5] (adding diacerein to current anti-diabetic treatment) is on record as “did not increase”. For the same molecule, in data set [5] (between baseline levels and levels at week 24, diacerein vs placebo), the “differences between treatment groups in body weight, blood pressure, pulse rate and lipid profiles” value is “no statistically significant differences”. In addition, in data set [6] (24 weeks, P=0.0158), the “between-group difference in HbA1c change (diacerein vs placebo)” value was found to be 0.63 percentage point. The “average absolute difference in HbA1c levels between baseline and 24 weeks (reduction)” value in data set [6] (add-on diacerein 50 mg twice a day, 24 weeks, within group) was 0.63 percentage point. Also, in data set [6] (after 20 weeks, P=0.0223), the “HbA1c absolute reduction versus the placebo group” value turned out to be 0.60%. Further, the “number of patients who had any reduction in HbA1c levels” value in data set [6] (at 24 weeks) is on record as 20 of 26.
